According to patent publication EP4722201A1, “3-PHENYLISOXAZOLINE-5-CARBOXAMIDE COMPOUND, AND PREPARATION METHOD THEREFOR, HERBICIDAL COMPOSITION THEREOF AND USE THEREOF” (Jiangsu Flag Chemical Industry Co., Ltd, priority 2023, dated 2024):

Columns and labels:
Format in all cases: in vivo
[1] = test system: Cyperus iria; assay: Indoor herbicide activity determination, post-emergence (stem and leaf spray at 2-4 leaf stage); conditions: 504 h, determined 21 days later, read-out: Inhibition rate of fresh weight, Cyperus iria; for inhibition at 60 g/ha: 60 g a.i./ha; for inhibition at 30 g/ha: 30 g a.i./ha
Procedure, shortened: (§1)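 Potted weeds in sandy nutrient soil (pH 6.1, 1% organic matter) were grown in a constant-temperature illuminated room to the 2-4 leaf stage, then given a stem-and-leaf spray. Plants went back to the culture room once the spray had dried in shade. At 21 days, fresh weight inhibition % was calculated relative to untreated control plants.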

[2] = test system: Eclipta prostrata; assay: as above; conditions: 504 h, determined 21 days later, read-out: Inhibition rate of fresh weight, Eclipta prostrata; for inhibition at 60 g/ha: 60 g a.i./ha; for inhibition at 30 g/ha: 30 g a.i./ha
Procedure, shortened: as §1

[3] = test system: Digitaria sanguinalis; assay: as above; conditions: 504 h, determined 21 days later, read-out: Inhibition rate of fresh weight, Digitaria sanguinalis; for inhibition at 60 g/ha: 60 g a.i./ha; for inhibition at 30 g/ha: 30 g a.i./ha
Procedure, shortened: as §1

[4] = test system: Leptochloa chinensis; assay: Indoor herbicide activity determination, Seed Treatment; pre-emergence (soil spray)
Procedure, shortened: (§2)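 Pre-emergence soil spray; sandy soil pH 6.1, OM 1%, 7 cm pots; seeds covered, wetted from below, 24 h incubation under light at constant temperature; spray tower, 300 mm height, 390 mL/min nozzle flow; readout = % fresh-weight inhibition vs control at 21 d.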

[5] = test system: Eleusine indica; assay: as above
Procedure, shortened: as §2

[6] = test system: Alopecurus japonicus; assay: as above
Procedure, shortened: as §2

[7] = test system: Lolium multiflorum; assay: as above
Procedure, shortened: as §2

[8] = test system: Alopecurus myosuroides; assay: as above
Procedure, shortened: as §2

[9] = test system: Cyperus iria; assay: as above; conditions: read-out: Herbicidal activities (inhibition rate) Cyperus iria; for inhibition at 60 g/ha: 60 g a.i./ha
Procedure, shortened: as §2

[10] = test system: Aegilops tauschii; assay: as above; conditions: 120 g a.i./ha, read-out: Herbicidal activities (inhibition rate) Aegilops tauschii
Procedure, shortened: as §2

[11] = test system: Eclipta prostrata; assay: as above; conditions: 60 g a.i./ha, read-out: Herbicidal activities (inhibition rate) Eclipta prostrata
Procedure, shortened: as §2

[12] = test system: Digitaria sanguinalis; assay: as above; conditions: 60 g a.i./ha, read-out: Herbicidal activities (inhibition rate) Digitaria sanguinalis
Procedure, shortened: as §2

O=C(N[C@H]1C[C@@H](C(=O)O)C1)C1(C(F)(F)F)CC(c2cc(F)cc(OC(F)(F)F)c2)=NO1 (relative stereo) [I-249]
inhibition at 60 g/ha [1]: 80 to 100% | inhibition at 60 g/ha [2]: 60 to 80% | inhibition at 60 g/ha [3]: 80 to 100% | Herbicidal activities, Leptochloa chinensis (inhibition rate class) ([4]; Dosage 240 g a.i./ha): A (A indicates that the inhibition rate was greater than or equal to 80% to 100%) | Herbicidal activities, Eleusine indica (inhibition rate class) ([5]; Dosage 240 g a.i./ha): A (A indicates that the inhibition rate was greater than or equal to 80% to 100%) | Herbicidal activities, Alopecurus japonicus (inhibition rate class) ([6]; Dosage 240 g a.i./ha): A (A indicates that the inhibition rate was greater than or equal to 80% to 100%) | Herbicidal activities, Lolium multiflorum (inhibition rate class) ([7]; Dosage 240 g a.i./ha): A (A indicates that the inhibition rate was greater than or equal to 80% to 100%) | Herbicidal activities, Alopecurus myosuroides (inhibition rate class) ([8]; Dosage 240 g a.i./ha): A (A indicates that the inhibition rate was greater than or equal to 80% to 100%)

COC(=O)[C@H]1C[C@@H](NC(=O)C2(C(F)(F)F)CC(c3cc(F)cc(OC(F)(F)F)c3)=NO2)C1 (relative stereo) [I-251]
inhibition at 60 g/ha [1]: 80 to 100% | inhibition at 60 g/ha [2]: 60 to 80% | inhibition at 60 g/ha [3]: 80 to 100% | Herbicidal activities, Leptochloa chinensis (inhibition rate class) ([4]; Dosage 240 g a.i./ha): A (A indicates that the inhibition rate was greater than or equal to 80% to 100%) | Herbicidal activities, Eleusine indica (inhibition rate class) ([5]; Dosage 240 g a.i./ha): A (A indicates that the inhibition rate was greater than or equal to 80% to 100%) | Herbicidal activities, Alopecurus japonicus (inhibition rate class) ([6]; Dosage 240 g a.i./ha): A (A indicates that the inhibition rate was greater than or equal to 80% to 100%) | Herbicidal activities, Lolium multiflorum (inhibition rate class) ([7]; Dosage 240 g a.i./ha): A (A indicates that the inhibition rate was greater than or equal to 80% to 100%) | Herbicidal activities, Alopecurus myosuroides (inhibition rate class) ([8]; Dosage 240 g a.i./ha): A (A indicates that the inhibition rate was greater than or equal to 80% to 100%)

O=C(N[C@H]1C[C@@H](C(=O)O)C1)C1(C(F)(F)F)CC(c2cccc(F)c2)=NO1 (relative stereo) [I-268]
inhibition at 60 g/ha [1]: 80 to 100% | inhibition at 60 g/ha [2]: 40 to 60% | inhibition at 60 g/ha [3]: 80 to 100% | Herbicidal activities, Leptochloa chinensis (inhibition rate class) ([4]; Dosage 240 g a.i./ha): A (A indicates that the inhibition rate was greater than or equal to 80% to 100%) | Herbicidal activities, Eleusine indica (inhibition rate class) ([5]; Dosage 240 g a.i./ha): A (A indicates that the inhibition rate was greater than or equal to 80% to 100%) | Herbicidal activities, Alopecurus japonicus (inhibition rate class) ([6]; Dosage 240 g a.i./ha): A (A indicates that the inhibition rate was greater than or equal to 80% to 100%) | Herbicidal activities, Lolium multiflorum (inhibition rate class) ([7]; Dosage 240 g a.i./ha): A (A indicates that the inhibition rate was greater than or equal to 80% to 100%) | Herbicidal activities, Alopecurus myosuroides (inhibition rate class) ([8]; Dosage 240 g a.i./ha): A (A indicates that the inhibition rate was greater than or equal to 80% to 100%)

COC(=O)[C@H]1C[C@@H](NC(=O)C2(C(F)(F)F)CC(c3cccc(F)c3)=NO2)C1 (relative stereo) [I-270]
inhibition at 60 g/ha [1]: 80 to 100% | inhibition at 60 g/ha [2]: 40 to 60% | inhibition at 60 g/ha [3]: 80 to 100% | Herbicidal activities, Leptochloa chinensis (inhibition rate class) ([4]; Dosage 240 g a.i./ha): A (A indicates that the inhibition rate was greater than or equal to 80% to 100%) | Herbicidal activities, Eleusine indica (inhibition rate class) ([5]; Dosage 240 g a.i./ha): A (A indicates that the inhibition rate was greater than or equal to 80% to 100%) | Herbicidal activities, Alopecurus japonicus (inhibition rate class) ([6]; Dosage 240 g a.i./ha): A (A indicates that the inhibition rate was greater than or equal to 80% to 100%) | Herbicidal activities, Lolium multiflorum (inhibition rate class) ([7]; Dosage 240 g a.i./ha): A (A indicates that the inhibition rate was greater than or equal to 80% to 100%) | Herbicidal activities, Alopecurus myosuroides (inhibition rate class) ([8]; Dosage 240 g a.i./ha): A (A indicates that the inhibition rate was greater than or equal to 80% to 100%)

COC(=O)[C@H]1C[C@@H](NC(=O)C2(C(C)(F)F)CC(c3cc(F)cc(F)c3)=NO2)C1 (relative stereo) [I-347]
inhibition at 60 g/ha [1]: 80 to 100% | inhibition at 60 g/ha [2]: 40 to 60% | inhibition at 60 g/ha [3]: 60 to 80% | Herbicidal activities, Leptochloa chinensis (inhibition rate class) ([4]; Dosage 240 g a.i./ha): A (A indicates that the inhibition rate was greater than or equal to 80% to 100%) | Herbicidal activities, Eleusine indica (inhibition rate class) ([5]; Dosage 240 g a.i./ha): A (A indicates that the inhibition rate was greater than or equal to 80% to 100%) | Herbicidal activities, Alopecurus japonicus (inhibition rate class) ([6]; Dosage 240 g a.i./ha): A (A indicates that the inhibition rate was greater than or equal to 80% to 100%) | Herbicidal activities, Lolium multiflorum (inhibition rate class) ([7]; Dosage 240 g a.i./ha): A (A indicates that the inhibition rate was greater than or equal to 80% to 100%) | Herbicidal activities, Alopecurus myosuroides (inhibition rate class) ([8]; Dosage 240 g a.i./ha): A (A indicates that the inhibition rate was greater than or equal to 80% to 100%)

C=C(F)C1(C(=O)N[C@H]2C[C@@H](C(=O)OC)C2)CC(c2cc(F)cc(F)c2)=NO1 (relative stereo) [I-356]
inhibition at 60 g/ha [1]: 80 to 100% | inhibition at 60 g/ha [2]: 40 to 60% | inhibition at 60 g/ha [3]: 60 to 80% | Herbicidal activities, Leptochloa chinensis (inhibition rate class) ([4]; Dosage 240 g a.i./ha): A (A indicates that the inhibition rate was greater than or equal to 80% to 100%) | Herbicidal activities, Eleusine indica (inhibition rate class) ([5]; Dosage 240 g a.i./ha): A (A indicates that the inhibition rate was greater than or equal to 80% to 100%) | Herbicidal activities, Alopecurus japonicus (inhibition rate class) ([6]; Dosage 240 g a.i./ha): A (A indicates that the inhibition rate was greater than or equal to 80% to 100%) | Herbicidal activities, Lolium multiflorum (inhibition rate class) ([7]; Dosage 240 g a.i./ha): A (A indicates that the inhibition rate was greater than or equal to 80% to 100%) | Herbicidal activities, Alopecurus myosuroides (inhibition rate class) ([8]; Dosage 240 g a.i./ha): A (A indicates that the inhibition rate was greater than or equal to 80% to 100%)

C=CC1(C(=O)N[C@H]2C[C@@H](C(=O)O)C2)CC(c2cc(F)cc(F)c2)=NO1 (stereo partly shown) [I-1]
inhibition at 60 g/ha [1]: 80 to 100% | inhibition at 60 g/ha [2]: 60 to 80% | inhibition at 60 g/ha [3]: 80 to 100% | Herbicidal activities, Leptochloa chinensis (inhibition rate class) ([4]; Dosage 240 g a.i./ha): A (A indicates that the inhibition rate was greater than or equal to 80% to 100%) | inhibition at 120 g/ha ([9]; 120 g a.i./ha): 80 to 100% | Herbicidal activities, Eleusine indica (inhibition rate class) ([5]; Dosage 240 g a.i./ha): A (A indicates that the inhibition rate was greater than or equal to 80% to 100%) | Herbicidal activities, Alopecurus japonicus (inhibition rate class) ([6]; Dosage 240 g a.i./ha): A (A indicates that the inhibition rate was greater than or equal to 80% to 100%) | inhibition at 120 g/ha [10]: 80 to 100% | Herbicidal activities, Lolium multiflorum (inhibition rate class) ([7]; Dosage 240 g a.i./ha): A (A indicates that the inhibition rate was greater than or equal to 80% to 100%) | Herbicidal activities, Alopecurus myosuroides (inhibition rate class) ([8]; Dosage 240 g a.i./ha): A (A indicates that the inhibition rate was greater than or equal to 80% to 100%)

C=C[C@]1(C(=O)N[C@H]2C[C@@H](C(=O)OC)C2)CC(c2cc(F)cc(F)c2)=NO1 [I-4]
inhibition at 30 g/ha [1]: 80 to 100% | inhibition at 30 g/ha [2]: 60 to 80% | inhibition at 30 g/ha [3]: 80 to 100% | Herbicidal activities, Leptochloa chinensis (inhibition rate class) ([4]; Dosage 120 g a.i./ha): A (A indicates that the inhibition rate was greater than or equal to 80% to 100%) | inhibition at 60 g/ha [9]: 80 to 100% | Herbicidal activities, Eleusine indica (inhibition rate class) ([5]; Dosage 120 g a.i./ha): A (A indicates that the inhibition rate was greater than or equal to 80% to 100%) | Herbicidal activities, Alopecurus japonicus (inhibition rate class) ([6]; Dosage 120 g a.i./ha): A (A indicates that the inhibition rate was greater than or equal to 80% to 100%) | Herbicidal activities, Lolium multiflorum (inhibition rate class) ([7]; Dosage 120 g a.i./ha): A (A indicates that the inhibition rate was greater than or equal to 80% to 100%) | Herbicidal activities, Alopecurus myosuroides (inhibition rate class) ([8]; Dosage 120 g a.i./ha): A (A indicates that the inhibition rate was greater than or equal to 80% to 100%) | inhibition at 60 g/ha [11]: 80 to 100% | inhibition at 60 g/ha [12]: 80 to 100%

C=C[C@]1(C(=O)N[C@H]2C=C[C@@H](C(=O)OCC(C)C)C2)CC(c2cc(F)cc(C(F)(F)F)c2)=NO1 [I-438]
inhibition at 30 g/ha [1]: 60 to 80% | inhibition at 30 g/ha [2]: 60 to 80% | inhibition at 30 g/ha [3]: 60 to 80% | Herbicidal activities, Leptochloa chinensis (inhibition rate class) ([4]; Dosage 120 g a.i./ha): A (A indicates that the inhibition rate was greater than or equal to 80% to 100%) | inhibition at 60 g/ha [9]: 80 to 100% | Herbicidal activities, Eleusine indica (inhibition rate class) ([5]; Dosage 120 g a.i./ha): A (A indicates that the inhibition rate was greater than or equal to 80% to 100%) | inhibition at 60 g/ha [11]: 80 to 100%
